In US8436185B2, “Pharmaceutically acceptable salts of 2-{4-[(3S)-piperidin-3-yl]phenyl}-2H-indazole-7-carboxamide” (Merck Sharp & Dohme Corp., priority 2008, dated 2013):

Legend:
PARP = conditions: rabbits, cited from earlier work
[1] = for Hygroscopicity (at 25° C.): in words

Structure (SMILES)	reduction in infarct size (PARP; single injection 1 mg/kg)	reduction in infarct size in the heart (PARP; single injection 10 mg/kg, one minute before occlusion or before reperfusion)	moisture to 50% RH ([1]; 25° C., to 50% RH)	moisture adsorbed to 95% RH ([1]; 25° C.)	Hygroscopicity (at 25° C.) [1]
Oc1cccc2c(O)nccc12 [1,5-dihydroxyisoquinoline]	38-48%	–	–	–	–
NC(=O)c1cccc(N)c1 [3-amino-benzamide]	–	32-42%	–	–	–
Cl.NC(=O)c1cccc2cn(-c3ccc([C@@H]4CCCNC4)cc3)nc12 [Chloride salt, (3S)-3-[4-[7-(Aminocarbonyl)-2H-indazol-2-yl]phenyl]piperidinium chloride]	–	–	10%	60% moisture to 95% RH)	Highly hygroscopic
Cc1ccc(S(=O)(=O)O)cc1.NC(=O)c1cccc2cn(-c3ccc([C@@H]4CCCNC4)cc3)nc12 [Example 1, (3S)-3-{4-[7-(Aminocarbonyl)-2H-indazol-2-yl]phenyl}piperidinium 4-methylbenzenesulfonate]	–	–	–	0.3%	Non-hygroscopic
